Reference: patent US11324762B2, “Deuterated derivatives of psilocybin and uses thereof” (Lennham Pharmaceuticals, Inc., priority 2020, dated 2022)

Key:
Assay type in all cases: in vitro ADME
[1] = metabolic stability and metabolite formation in human hepatocytes; settings: 1.0 million viable cells/ml, 37° C., 0-60 min
Protocol: (§1) A study was conducted to assess the metabolic stability and metabolite formulation of psilocin and d10-psilocin (the compound of Formula (IB-1)) in human hepatocytes under the conditions set forth in Table 1.

human hepatocytes = assay: as above; settings: 1 μM, 60 min
Protocol: as §1

human MAO-A [2] = target: T1, human MAO-A (Homo sapiens, UniProt P21397); assay: metabolism of psilocin and d10-psilocin by human MAO-A (Example 3); settings: 0.2 μM, protein 1 mg/ml, 0-30 min, FIG. 2
T1 sequence (P21397 1-527): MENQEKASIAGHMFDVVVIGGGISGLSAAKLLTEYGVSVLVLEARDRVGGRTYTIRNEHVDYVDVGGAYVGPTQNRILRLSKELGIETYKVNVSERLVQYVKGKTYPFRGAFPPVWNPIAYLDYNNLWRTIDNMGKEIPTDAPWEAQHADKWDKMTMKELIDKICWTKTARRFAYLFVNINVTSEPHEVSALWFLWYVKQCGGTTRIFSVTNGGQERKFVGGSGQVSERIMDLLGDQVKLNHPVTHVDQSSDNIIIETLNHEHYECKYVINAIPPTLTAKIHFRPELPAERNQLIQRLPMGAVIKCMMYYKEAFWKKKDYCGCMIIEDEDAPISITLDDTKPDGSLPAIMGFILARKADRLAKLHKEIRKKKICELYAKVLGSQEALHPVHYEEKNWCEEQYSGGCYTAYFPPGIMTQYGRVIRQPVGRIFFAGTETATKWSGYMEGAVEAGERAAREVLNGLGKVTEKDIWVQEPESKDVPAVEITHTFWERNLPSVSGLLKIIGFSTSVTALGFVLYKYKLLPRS
Protocol: A study was conducted to assess the metabolism of psilocin and d10-psilocin (the compound of Formula (IB-1)) by human MAO-A under the conditions set forth in Table 3.

human MAO-A [3] = target: T1, human MAO-A; assay: metabolism of psilocin by human MAO-A (Example 2); settings: 0.2 and 2 μM, protein 0.03-1 mg/ml, 0-30 min, FIGS. 1A & 1B

## [2H]C([2H])([2H])N(C([2H])([2H])[2H])C([2H])([2H])C([2H])([2H])c1c[nH]c2cccc(O)c12 [d10-psilocin]
[1]
  half-life at 1 μM: 298 min
Human hepatocytes
  metabolite 4-hydroxy-indole-3-acetic acid after 60-minute incubation: undetected
  parent remained after the 60-minute incubation: approximately 84%
Human MAO-A [2]
  rate of metabolism by human MAO-A compared with psilocin: metabolized more slowly by human MAO-A than psilocin

## CN(C)CCc1c[nH]c2cccc(O)c12 [psilocin, 4-hydroxy-N,N-dimethyltryptamine]
Human MAO-A [3]
  metabolism by human MAO-A: metabolized by human MAO-A
[1]
  half-life at 1 μM: 178 min
Human hepatocytes
  parent remained after the 60-minute incubation: approximately 78%
